# Like-named read-outs stand apart in the source and are kept apart here.
# What was measured:
# [1] = DPPH radical scavenging (antioxidant) assay; details: for IC50: isolated compounds
# Experimental: Free radical scavenging activity of the test fractions/compounds was determined by measuring the change in absorbance of DPPH (l, l-Diphenyl-2-picrylhydrazyl radical, Sigma-Aldrich, St Louis, MO, USA) at 515 nm by the microplate reader (SpectraMax M2, Molecular Devices, CA, USA) as previously described. […] The IC50 values of the tested compounds were calculated using nonlinear regression through GraphPad Prism 4 software (La Jolla, CA, USA).
# [2] = MTT cytotoxic activity assay on MDA-MB-231 breast cancer cells; type: cell-based, human; details: human, MDA-MB-231 breast cancer cells; for viability at 24 h, 75 µM: MDA-MB-231, 75 µM; for viability at 24 h, 75 µM / viability at 24 h, 25 µM: read-out: cell viability
# Experimental: (§1) Cytotoxic activity was performed according to the previously described methods. Breast cancer cell lines MDA-MB-231 were maintained in Dulbecco’s modified eagle medium (DMEM, Invitrogen, Carlsbad, CA, USA). The media was supplemented with 10% fetal bovine serum (FBS) and 1% antimycotic antibiotic (Invitrogen, Carlsbad, CA, USA). Cells were cultured in a 5% CO2-humidified atmosphere at 37 °C. Stock solution (5 mg/mL) of 3-(4,5-dimethylthiazol-2-yl)-2,5-diphenyltetrazolium bromide (MTT, Merck, Darmstadt, Hesse, Germany) was prepared in phosphate-buffered saline (PBS).
# (§2) Cells were seeded at a density of 1 × 10^4 cells per well in 96-well microtiter culture plates. After overnight incubation, normal growth medium was removed and replaced with either fresh medium (untreated control) or different concentrations of respective compounds in growth medium diluted from a 2 mM stock. After 24 h of incubation, MTT solution was added to each well (0.1 mg/mL in DMEM) and incubated further for 4 h at 37 °C. Upon termination, the supernatant was aspirated and the MTT formazan, formed by metabolically viable cells, was dissolved in a solubilization solution containing DMSO (100 սL) by mixing for 5 min on a gyratory shaker. The absorbance was measured at 540 nm (reference wavelength 690 nm) on an Ultra Multifunctional Microplate Reader (Bio-Rad, Hercules, California, USA). Absorbance of control (without treatment) was considered as 100% cell survival. Each treatment had three replicate wells [56]. The IC50 values of the active compounds were calculated using nonlinear regression through GraphPad Prism 4 software (La Jolla, CA, USA).
# [3] = test system: MDA-MB-231 breast cancer cells; experiment: as above; type: cell-based, human; details: for IC50: MDA-MB-231, MTT, 24 h incubation, read-out: IC50 (Mean ± SEM)
# Experimental: as §1, §2
# [4] = reported earlier by the group; cited from earlier work
# bovine erythrocyte CA-II = molecular target: T1, bovine erythrocyte CA-II (Bos taurus, UniProt P00921); experiment: Carbonic anhydrase II inhibition (4-nitrophenyl acetate); type: biochemical; design: % Inhibition: concentration or dose not given beside the values; details: CA-II in vitro; for IC50: read-out: IC50 (µM) ± (SEM)
# T1 construct: purified bovine erythrocyte CA-II; purchased Sigma-Aldrich; host or cells: bovine erythrocytes (natural source)
# T1 sequence (P00921 whole entry): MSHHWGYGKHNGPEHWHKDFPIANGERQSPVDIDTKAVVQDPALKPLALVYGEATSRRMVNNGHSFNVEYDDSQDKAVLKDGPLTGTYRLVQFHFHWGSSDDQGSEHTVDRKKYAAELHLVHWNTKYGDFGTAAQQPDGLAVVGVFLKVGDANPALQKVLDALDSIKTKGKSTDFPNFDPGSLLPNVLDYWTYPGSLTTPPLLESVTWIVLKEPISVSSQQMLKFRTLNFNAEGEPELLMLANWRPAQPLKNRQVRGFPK
# Experimental: The total reaction volume of 200 µL included 20 µL of test compounds prepared in DMSO, followed by the addition of 140 µL of the HEPES–tris buffer, 20 µL of purified bovine erythrocyte CA-II (0.1 mg/mL) prepared in buffer, and 20 µL of a solution of 4-nitrophenyl acetate. A 20 µL amount of test compound was incubated with the enzyme (EC 4.2.1.1, Sigma-Aldrich, St. Louis, MO, USA) for 15 min in a 96-well flat-bottom plate. The rate of product formation was monitored with the addition of 20 µL of 4-NPA as substrate, prepared in methanol at the final concentration of 0.7 mM, at 25 °C for 30 min with regular intervals of 1 min, by using microplate readers (Bio-Rad, Molecular Devices, CA, USA). HEPES-tris was used as a buffer for the reaction at the final concentration of 20 mM at pH 7.4. The percent inhibition was calculated by using the following formula:% Inhibition = 100 − (OD test well/OD control) × 100
smiles,measurement,setting,value
"C[C@@H]1C[C@@H](O)Cc2cc(O)cc(O)c21 [Compound 14, feroxidin]",% Inhibition (1 mM),[1],80%
same,IC50,[1],241 ± 1.5 µM
"O=C1c2c(O)cccc2[C@](O)([C@@H]2O[C@H](CO)[C@@H](O)[C@H](O)[C@H]2O)c2cc(CO)cc(O)c21 [Compound 10, 10-hydroxy aloin A]","viability at 24 h, 75 µM",[2],77%
same,IC50,"[3]; Homo sapiens, MDA-MB-231, 24 h",143 ± 12.7 µM
same,cytotoxic effect / cell growth inhibition,"[3]; MDA-MB-231, 25 µM",growth-promoting effect
"O=C(/C=C/c1ccccc1)O[C@@H]1O[C@H](CO)[C@@H](O)[C@H](O)[C@H]1OC(=O)c1cc(O)c(O)c(O)c1 [Compound 9, lyciumaside]",antioxidant IC50,[4],30 µg/mL
same,"viability at 24 h, 25 µM","[2]; MDA-MB-231, 25 µM",81 to 89%
same,IC50,"[3]; Homo sapiens, MDA-MB-231, 24 h",76 µM
same,cytotoxic effect / cell growth inhibition,"[3]; MDA-MB-231, 25 µM",did not inhibit cell growth significantly
same,loss of cell viability,"[3]; MDA-MB-231, 100 µM",approximately 70%
same,IC50,[3],76.9 ± 7.04 µM
same,cell growth inhibition,"[3]; MDA-MB-231, concentrations above 50 µM",above 50%
"CC1OC(OCc2cc(O)c3c(c2)C(=O)c2cccc(O)c2C3=O)C(O)C(O)C1O (stereo not shown) [Compound 8, aloe emodine 11-O-rhamnoside]","viability at 24 h, 25 µM","[2]; MDA-MB-231, 25 µM",81 to 89%
same,IC50,"[3]; Homo sapiens, MDA-MB-231, 24 h",72 µM
same,IC50,[3],72.2 ± 6.29 µM
"C=C1C(=O)OC2C1CCC(O)C1(C)CCC(C)(O)C21 (stereo not shown) [Compound 3, lyciumate]","viability at 24 h, 25 µM","[2]; MDA-MB-231, 25 µM",81 to 89%
same,IC50,"[3]; Homo sapiens, MDA-MB-231, 24 h",49.4 ± 3.73 µM
"COc1cccc2c1C(=O)c1c(O)c3c(c(O)c1C2=O)C[C@@](O)(C(=O)CO)C[C@@H]3O[C@H]1C[C@H](N)[C@H](O)[C@H](C)O1 [Doxorubicin, reference compound]",IC50,"[3]; Homo sapiens, MDA-MB-231, 24 h",3.31 ± 0.19 µM
"C=C1CC[C@H]2C(=C)CC[C@H]3C(=C)C(=O)O[C@@H]3[C@@H]12 [Compound 1, dehydrocostus lactone]",% Inhibition,bovine erythrocyte CA-II,33%
same,IC50 (µM) ± (SEM),bovine erythrocyte CA-II,inactive
same,"viability at 24 h, 25 µM","[2]; MDA-MB-231, 25 µM",76%
same,IC50,"[3]; Homo sapiens, MDA-MB-231, 24 h",35.4 ± 2.56 µM
same,inhibition at 100 µM,"[3]; Homo sapiens, MDA-MB-231, 100 µM, read-out: inhibition of cell proliferation",92.1%
same,antioxidant activity (in words),[1],moderate activity
"Oc1cc(O)c2c(c1)O[C@H](c1ccc(O)c(O)c1)[C@@H](O)C2 [Compound 4, catechin]",IC50,"[3]; Homo sapiens, MDA-MB-231, 24 h",101 ± 7.09 µM
same,% Inhibition (1 mM),[1],78%
same,IC50,[1],55 ± 2 µM
"Cc1cc(O)c2c(c1)C(=O)c1cc(O)cc(O)c1C2=O [Compound 6, emodin]",IC50,"[3]; Homo sapiens, MDA-MB-231, 24 h",73 µM
same,IC50,[3],73.5 ± 5.89 µM
same,% Inhibition (1 mM),[1],71%
same,IC50,[1],645 ± 1.5 µM
"C=C1C(=O)O[C@@H]2/C=C(\C)CC/C=C(\C)CC[C@@H]12 [Compound 2, costunolide]",% Inhibition,bovine erythrocyte CA-II,84.7%
same,IC50,bovine erythrocyte CA-II,24.4 µM
same,"viability at 24 h, 25 µM","[2]; MDA-MB-231, 25 µM",81 to 89%
same,IC50,"[3]; Homo sapiens, MDA-MB-231, 24 h",42.1 ± 2.98 µM
"C[C@@H]1O[C@@H](OCc2cc(O)c3c(c2)[C@H]([C@@H]2O[C@H](CO)[C@@H](O)[C@H](O)[C@H]2O)c2cccc(O)c2C3=O)[C@H](O)[C@H](O)[C@H]1O [Compound 11, aloinoside B]","viability at 24 h, 75 µM",[2],64%
same,IC50,"[3]; Homo sapiens, MDA-MB-231, 24 h",140 ± 13.1 µM
same,cytotoxic effect / cell growth inhibition,"[3]; MDA-MB-231, 25 µM",no cell growth inhibition
"O=C1c2cccc(O)c2C(=O)c2c(O)cc(CO)cc21 [Compound 5, aloe emodin]",% Inhibition,bovine erythrocyte CA-II,86.3%
same,IC50,bovine erythrocyte CA-II,14.4 ± 1.14 µM
same,IC50,"[3]; Homo sapiens, MDA-MB-231, 24 h",~31 µM
same,loss of cell viability,"[3]; MDA-MB-231, 25 µM",50.53%
same,IC50,[3],31.4 ± 2.44 µM
"CC(=O)Cc1cc(=O)c2c(C)cc(O)c(C3OC(COC(=O)C=Cc4ccc(O)cc4)C(O)C(O)C3O)c2o1 (stereo not shown) [Compound 13, 6′-O-coumaroylaloesin]",% Inhibition (1 mM),[1],73%
same,IC50,[1],762 ± 2 µM
"COc1cc(=O)oc2cc(O)cc(C)c12 [Compound 12, 7-demethylsiderin]",% Inhibition,bovine erythrocyte CA-II,91.2%
same,IC50,bovine erythrocyte CA-II,23.3 ± 1.63 µM
same,"inhibition at 24 h, 25 µM","[2]; MDA-MB-231, 25 µM, read-out: cytotoxic effect / cell growth inhibition",~14%
same,"viability at 24 h, 75 µM",[2],44%
same,IC50,"[3]; Homo sapiens, MDA-MB-231, 24 h",60.1 ± 4.82 µM
"O=C1O[C@H]([C@@H](O)CO)C(O)=C1O [Ascorbic acid, reference compound]",Antioxidant % Inhibition,[1]; concentration = 1 mg/mL,90%
same,Antioxidant IC50 ± SEM,[1]; fractions and standard,53 ± 1.32 µg/mL

# Source: article PMC7281707, “Antiproliferative and Carbonic Anhydrase II Inhibitory Potential of Chemical Constituents from Lycium shawii and Aloe vera: Evidence from In Silico Target Fishing and In Vitro Testing” (Pharmaceuticals, 2020)
